± gives the standard deviation of the averaged measurements.
Key:
Assay in all cases: level (log10 ratio to DMSO vehicle control); higher = higher biomarker level / cell amount than vehicle control
Settings in all cases: in DMSO
[1] = compound: O=C(O)CCC(F)(F)C(F)(F)C(F)(F)C(F)(F)C(F)(F)F [2H,2H,3H,3H-Perfluorooctanoic acid]
Procedure: (§1)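 BioMAP Diversity Plus panel of 12 human primary cell co-culture systems (3C, 4H, LPS, SAg, BT, BF4T, BE3C, CASM3C, HDF3CGF, KF3CT, MyoF, Mphg). Compounds were added 1 h before stimulation and left for 24 h (MyoF 48 h; BT 72 h for soluble read-outs or 6 d for IgG). Biomarkers were read by ELISA, cytotoxicity by SRB, PBMC viability and proliferation by Alamar Blue. Each well value was divided by the mean of 8 DMSO control wells on the same plate and log10 transformed; duplicate blinded samples were tested at 4 concentrations.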

[2] = compound: O=S(=O)(O)C(F)(F)C(F)(F)C(F)(F)C(F)(F)C(F)(F)C(F)(F)C(F)(F)C(F)(F)F [Potassium perfluorooctanesulfonate]
Procedure: as §1

[3] = compound: O=S(=O)(O)C(F)(F)C(F)(F)C(F)(F)C(F)(F)C(F)(F)C(F)(F)C(F)(F)C(F)(F)F [Perfluorooctanesulfonic acid]
Procedure: as §1

Test System	level (log10) ([1]; 6700 nM)	level (log10) ([1]; 20000 nM)	level (log10) ([1]; 60000 nM)	level (log10) ([2]; 6700 nM)	level (log10) ([2]; 20000 nM)	level (log10) ([2]; 60000 nM)	level (log10) ([3]; 6700 nM)	level (log10) ([3]; 20000 nM)	level (log10) ([3]; 60000 nM)
HDF3CGF:CXCL8/IL-8	-0.014 ± 0.014	-0.009 ± 0.014	-0.007 ± 0.025	-0.007 ± 0.0085	-0.0065 ± 0.0035	0.004 ± 0.013	-0.017 ± 0.0057	-0.014 ± 0.0042	0.0055 ± 0.015
HDF3CGF:CXCL9/MIG	-0.01 ± 0.047	-0.019 ± 0.047	-0.036 ± 0.044	-0.024 ± 0.024	-0.017 ± 0.02	-0.116 ± 0.04	-0.011 ± 0.013	-0.0085 ± 0.029	-0.0595 ± 0.0064
HDF3CGF:CXCL10/IP-10	-0.0015 ± 0.0092	0.02 ± 0.0014	-0.0205 ± 0.054	-0.0815 ± 0.03	-0.131 ± 0.06	-0.313 ± 0.044	-0.0405 ± 0.036	-0.113 ± 0.039	-0.259 ± 0.054
HDF3CGF:CXCL11/I-TAC	-0.0455 ± 0.12	-0.084 ± 0.11	-0.0825 ± 0.11	0.0005 ± 0.019	-0.0375 ± 0.015	-0.135 ± 0.0028	-0.0165 ± 0.016	-0.0185 ± 0.00071	-0.087 ± 0.017
HDF3CGF:Collagen I	0.0065 ± 0.079	-0.004 ± 0.078	0.0195 ± 0.14	0.0215 ± 0.0064	-0.0125 ± 0.0092	-0.0295 ± 0.061	0.0175 ± 0.033	0.0045 ± 0.026	0.0065 ± 0.042
HDF3CGF:Collagen III	-0.064 ± 0.055	-0.076 ± 0.033	-0.039 ± 0.061	-0.013 ± 0.0099	-0.0525 ± 0.042	-0.106 ± 0.017	-0.024 ± 0.031	-0.0155 ± 0.015	-0.0585 ± 0.013
HDF3CGF:EGFR	-0.055 ± 0.025	-0.0435 ± 0.037	-0.0205 ± 0.03	-0.0055 ± 0.019	-0.0305 ± 0.012	-0.0905 ± 0.029	-0.0205 ± 0.0064	-0.0495 ± 0.043	-0.04 ± 0.018
HDF3CGF:M-CSF	-0.044 ± 0.089	-0.067 ± 0.086	-0.051 ± 0.12	0.0165 ± 0.0078	0.012 ± 0.0014	-0.151 ± 0.018	0.0225 ± 0.018	0.018 ± 0.013	-0.075 ± 0.0042
HDF3CGF:MMP-1	-0.009 ± 0.023	-0.0385 ± 0.05	-0.0675 ± 0.076	-0.0075 ± 0.011	-0.0155 ± 0.0092	-0.0025 ± 0.005	-0.0145 ± 0.0064	-0.016 ± 0.0014	0.0085 ± 0.015
HDF3CGF:PAI-I	0.0145 ± 0.016	-0.004 ± 0.011	-0.0085 ± 0.0078	0.0485 ± 0.0064	0.011 ± 0.021	-0.181 ± 0.18	0.006	0.0125 ± 0.011	-0.0015 ± 0.025
HDF3CGF:Proliferation 72hr	-0.002 ± 0.054	0.007 ± 0.033	0.023 ± 0.018	0.13 ± 0.079	0.155 ± 0.09	-0.732 ± 0.039	0.141 ± 0.05	0.15 ± 0.048	-0.544 ± 0.18
HDF3CGF:SRB	-0.006 ± 0.034	0.0185 ± 0.04	0.077 ± 0.028	-0.033 ± 0.052	-0.005 ± 0.052	-0.0695 ± 0.053	0.008 ± 0.037	-0.009 ± 0.027	-0.0365 ± 0.035
HDF3CGF:TIMP-1	-0.019 ± 0.064	-0.01 ± 0.11	-0.047 ± 0.17	0.001 ± 0.024	-0.001 ± 0.016	0.097 ± 0.061	-0.0015 ± 0.021	0.0165 ± 0.026	0.0895 ± 0.061
HDF3CGF:TIMP-2	-0.0325 ± 0.021	-0.04 ± 0.023	0.005 ± 0.047	-0.055 ± 0.03	-0.108 ± 0.019	-0.137 ± 0.038	-0.028 ± 0.0085	-0.0695 ± 0.043	-0.149 ± 0.018
KF3CT:CCL2/MCP-1	-0.026	0.0135 ± 0.016	-0.0235 ± 0.069	-0.009 ± 0.011	-0.012 ± 0.0014	0.001 ± 0.05	-0.044 ± 0.017	-0.0205 ± 0.0078	0.0005 ± 0.00071
KF3CT:CD54/ICAM-1	-0.016 ± 0.0085	-0.0205 ± 0.018	-0.0285 ± 0.023	-0.0165 ± 0.021	0.0075 ± 0.011	0.002 ± 0.027	-0.0085 ± 0.0035	0.003 ± 0.02	0.0115 ± 0.011

Test System	level (log10) ([1]; 6700 nM)	level (log10) ([1]; 20000 nM)	level (log10) ([1]; 60000 nM)	level (log10) ([2]; 6700 nM)	level (log10) ([2]; 20000 nM)	level (log10) ([2]; 60000 nM)	level (log10) ([3]; 6700 nM)	level (log10) ([3]; 20000 nM)	level (log10) ([3]; 60000 nM)
KF3CT:CXCL8/IL-8	-0.017 ± 0.042	-0.009 ± 0.028	-0.0295 ± 0.0021	-0.006 ± 0.017	-0.0045 ± 0.0092	-0.0185 ± 0.015	-0.005 ± 0.0085	-0.0135 ± 0.035	-0.012 ± 0.035
KF3CT:CXCL9/MIG	-0.004 ± 0.011	0.0025 ± 0.0092	0.0075 ± 0.00071	-0.0065 ± 0.0035	0.003 ± 0.0042	0.008 ± 0.027	-0.007 ± 0.0042	0.0025 ± 0.0035	0.0075 ± 0.012
KF3CT:CXCL10/IP-10	-0.0045 ± 0.0021	-0.0125 ± 0.0078	-0.0185 ± 0.011	-0.0075 ± 0.032	-0.0015 ± 0.016	-0.0335 ± 0.012	-0.012 ± 0.02	-0.0065 ± 0.03	-0.015 ± 0.013
KF3CT:IL-1alpha	0.007 ± 0.0085	-0.0055 ± 0.016	-0.0345 ± 0.029	-0.0105 ± 0.016	-0.0085 ± 0.026	-0.029 ± 0.0028	0.0105 ± 0.0064	-0.0165 ± 0.00071	-0.016 ± 0.0028
KF3CT:MMP-9	-0.0235 ± 0.021	-0.018 ± 0.02	0.026 ± 0.0057	-0.013 ± 0.0099	-0.038 ± 0.0042	-0.0735 ± 0.023	-0.0195 ± 0.013	-0.013	-0.0705 ± 0.015
KF3CT:PAI-I	-0.0015 ± 0.00071	-0.0065 ± 0.0021	-0.017 ± 0.0085	-0.044 ± 0.027	-0.053 ± 0.0071	-0.125 ± 0.024	-0.0255 ± 0.013	-0.058 ± 0.02	-0.135 ± 0.052
KF3CT:SRB	-0.006 ± 0.0014	-0.0015 ± 0.005	0.006 ± 0.0085	-0.0075 ± 0.0078	-0.011 ± 0.0014	-0.006 ± 0.0057	-0.0195 ± 0.0021	-0.012 ± 0.0042	-0.012 ± 0.0099
KF3CT:TIMP-2	-0.011	-0.02 ± 0.024	0.015 ± 0.0099	-0.01 ± 0.013	0.002 ± 0.02	0.0145 ± 0.0078	-0.01 ± 0.0014	-0.0085 ± 0.016	0.0225 ± 0.025
KF3CT:uPA	-0.008 ± 0.013	-0.0095 ± 0.033	-0.004 ± 0.041	-0.011 ± 0.0099	-0.004 ± 0.011	-0.027	-0.001 ± 0.0057	-0.012 ± 0.018	-0.021 ± 0.0057
MyoF:CD106/VCAM-1	-0.0015 ± 0.019	-0.0115 ± 0.021	0.0005 ± 0.012	0.002 ± 0.027	0.0045 ± 0.029	0.0015 ± 0.019	0.0055 ± 0.0021	0.0085 ± 0.016	0.0165 ± 0.023
MyoF:CXCL8/IL-8	-0.032 ± 0.0042	-0.0215 ± 0.005	-0.018	-0.006 ± 0.023	-0.0455 ± 0.023	-0.0385 ± 0.0035	-0.057 ± 0.0028	-0.0755 ± 0.013	-0.025 ± 0.017
MyoF:Collagen I	0.013 ± 0.0014	-0.0005 ± 0.0064	0.0055 ± 0.018	-0.0145 ± 0.023	-0.0095 ± 0.013	0.0075 ± 0.021	-0.012 ± 0.018	-0.0045 ± 0.0092	0.015 ± 0.021
MyoF:Collagen III	-0.021 ± 0.023	-0.026 ± 0.024	-0.0115 ± 0.022	-0.0275 ± 0.018	-0.028 ± 0.031	-0.0365 ± 0.025	-0.0265 ± 0.026	-0.025 ± 0.0071	-0.0385 ± 0.012
MyoF:Collagen IV	-0.009 ± 0.021	-0.0075 ± 0.026	0.0115 ± 0.023	0.024 ± 0.017	0.0125 ± 0.022	0.0175 ± 0.05	0.0045 ± 0.039	-0.0005 ± 0.005	0.037 ± 0.034
MyoF:Decorin	-0.0075 ± 0.0021	-0.0065 ± 0.00071	0.019 ± 0.0071	0.0305 ± 0.019	0.0305 ± 0.013	0.0565 ± 0.013	0.018 ± 0.0071	0.0365 ± 0.013	0.054 ± 0.018
MyoF:MMP-1	-0.017 ± 0.041	-0.044 ± 0.0099	-0.007 ± 0.033	-0.04 ± 0.021	-0.047 ± 0.031	0.0305 ± 0.044	-0.031 ± 0.0014	-0.031 ± 0.013	0.038 ± 0.048

From the supplement of paper PMC10331698
